Assays:
J774 [1] = experiment: Cytotoxicity against mouse J774 cells at 12.5 uM incubated for 72 hrs by MTT assay relative to control; assay type: toxicity, cell-based; details: j774, 72 h
J774 [2] = experiment: Cytotoxicity against mouse J774 cells at 25 uM incubated for 72 hrs by MTT assay relative to control; assay type: toxicity, cell-based; details: j774, 72 h
J774 [3] = experiment: Cytotoxicity against mouse J774 cells at 50 uM incubated for 72 hrs by MTT assay relative to control; assay type: toxicity, cell-based; details: j774, 72 h
Leishmania donovani [4] = experiment: Antileishmanial activity against Leishmania donovani promastigotes measured after 48 hrs by MTT assay; assay type: functional, organism-based
Leishmania donovani [5] = experiment: Antileishmanial activity against Leishmania donovani amastigotes infected in J774 macrophage assessed as inhibition of parasite growth incubated for 48 hrs by luciferase assay; assay type: functional, organism-based; details: J774, 48 h
J774 [6] = experiment: Cytotoxicity against mouse J774 macrophage incubated for 72 hrs by MTT assay; assay type: functional
[7] = Selectivity index, ratio of CC50 for mouse J774 macrophage to IC50 for Leishmania donovani amastigotes infected in J774 macrophage; assay type: toxicity; details: J774 macrophages, read-out: Ratio CC50/IC50
Leishmania donovani [8] = experiment: Antileishmanial activity against amastigote form of Leishmania donovani infected in BALB/c mouse assessed as inhibition of parasite growth in liver at 20 mg/kg, po measured after 1 week post treatment by geimsa staining based analysis relative to control; assay type: functional; set-up: scale not given: the % may be the effect or the level left; details: time 1 weeks
Leishmania donovani [9] = experiment: Antileishmanial activity against amastigote form of Leishmania donovani infected in BALB/c mouse assessed as inhibition of parasite growth in spleen at 20 mg/kg, po measured after 1 week post treatment by geimsa staining based analysis relative to control; assay type: functional; set-up: scale not given: the % may be the effect or the level left; details: time 1 weeks
Leishmania donovani [10] = experiment: Antileishmanial activity against Leishmania donovani infected in golden hamster assessed as elimination of organ parasite burden at 30 mg/kg, po administered for 7 days and measured after 28 days by giemsa staining based analysis relative to control; assay type: functional; details: time 28 day
[11] = Toxicity in golden hamster infected with Leishmania donovani assessed as reduction in serum AST level at 30 mg/kg ,po and measured after 28 days post infection (reference value: 82.72 IU/L); assay type: organism-based, Mesocricetus auratus; details: in vivo, 672 h, time 28 day
[12] = Toxicity in golden hamster infected with Leishmania donovani assessed as reduction in serum ALT level at 30 mg/kg ,po and measured after 28 days post infection (reference value: 81.58 IU/L); assay type: organism-based, Mesocricetus auratus; details: in vivo, 672 h, time 28 day
[13] = Renal toxicity in golden hamster assessed as effect on creatinine level at 30 mg/kg, po measured after 28 days post infection; assay type: organism-based, Mesocricetus auratus; details: in vivo, 672 h, time 28 day
[14] = Renal toxicity in golden hamster assessed as effect on urea level at 30 mg/kg, po measured after 28 days post infection; assay type: organism-based, Mesocricetus auratus; details: in vivo, 672 h, time 28 day
Leishmania donovani [15] = experiment: Antileishmanial activity against Leishmania donovani promastigotes at 25 uM measured after 48 hrs by MTT assay relative to control; assay type: functional
Leishmania donovani [16] = experiment: Antileishmanial activity against Leishmania donovani amastigotes infected in J774 macrophage assessed as inhibition of parasite growth at 25 uM incubated for 48 hrs by luciferase assay relative to control; assay type: functional; set-up: scale not given: the % may be the effect or the level left
[17] = Stability of the compound in stimulated gastric fluid at 10 ug/ml at pH 1.2 measured upto 120 min by HPLC analysis; assay type: ADME; details: simulated gastric fluid, at 10 µg/mL, read-out: Stability
[18] = Stability of the compound in stimulated intestinal fluid at 10 ug/ml at pH 6.8 measured after 120 min by HPLC analysis; assay type: ADME; details: simulated intestinal fluid, at 10 µg/mL, read-out: Stability
[19] = Stability of the compound in Tris-buffer at 10 ug/ml at pH 7.4 measured upto 120 min by HPLC analysis; assay type: physicochemical; details: at 10 µg/mL, read-out: Stability
Leishmania donovani [20] = experiment: Antileishmanial activity against amastigote form of Leishmania donovani infected in BALB/c mouse assessed as inhibition of parasite growth in liver at 10 mg/kg, po measured after 1 week post treatment by geimsa staining based analysis relative to control; assay type: functional; set-up: scale not given: the % may be the effect or the level left; details: time 1 weeks
Leishmania donovani [21] = experiment: Antileishmanial activity against amastigote form of Leishmania donovani infected in BALB/c mouse assessed as inhibition of parasite growth in spleen at 10 mg/kg, po measured after 1 week post treatment by geimsa staining based analysis relative to control; assay type: functional; set-up: scale not given: the % may be the effect or the level left; details: time 1 weeks
Leishmania donovani [22] = experiment: Antileishmanial activity against amastigote form of Leishmania donovani infected in BALB/c mouse assessed as inhibition of parasite growth in liver at 40 mg/kg, po measured after 1 week post treatment by geimsa staining based analysis relative to control; assay type: functional; set-up: scale not given: the % may be the effect or the level left; details: time 1 weeks
Leishmania donovani [23] = experiment: Antileishmanial activity against amastigote form of Leishmania donovani infected in BALB/c mouse assessed as inhibition of parasite growth in spleen at 40 mg/kg, po measured after 1 week post treatment by geimsa staining based analysis relative to control; assay type: functional; set-up: scale not given: the % may be the effect or the level left; details: time 1 weeks
[24] = Toxicity in BALB/c mouse assessed as effect on body weight at 10 to 40 mg/kg, po measured after 1 week; assay type: organism-based; details: in vivo, 168 h, dose 10-40 mg/kg, time 1 weeks
[25] = Toxicity in BALB/c mouse assessed as effect on skin texture at 10 to 40 mg/kg, po measured after 1 week; assay type: organism-based; details: in vivo, 168 h, dose 10-40 mg/kg, time 1 weeks
Splenocyte [26] = experiment: Immunostimulatory activity in mouse splenocyte assessed as fold increase in IL-12 synthesis at 10 to 40 mg/kg measured after 1 week by RT-PCR analysis; assay type: functional; details: dose 10-40 mg/kg; time 1 weeks
Splenocyte [27] = experiment: Immunostimulatory activity in mouse splenocyte assessed as decrease in IL-10 secretion at 10 to 40 mg/kg measured after 1 week by RT-PCR analysis relative to control; assay type: functional; set-up: scale not given: the % may be the effect or the level left; details: dose 10-40 mg/kg, time 1 weeks
Leishmania donovani [28] = experiment: Antileishmanial activity against Leishmania donovani infected in golden hamster assessed as inhibition of parasite growth in liver at 40 mg/kg, po administered for 7 days and measured after 28 days by giemsa staining based analysis relative to control; assay type: functional; set-up: scale not given: the % may be the effect or the level left; details: time 28 day
Leishmania donovani [29] = experiment: Antileishmanial activity against Leishmania donovani infected in golden hamster assessed as inhibition of parasite growth in spleen at 40 mg/kg, po administered for 7 days and measured after 28 days by giemsa staining based analysis relative to control; assay type: functional; set-up: scale not given: the % may be the effect or the level left; details: time 28 day
Leishmania donovani [30] = experiment: Antileishmanial activity against Leishmania donovani infected in golden hamster assessed as inhibition of parasite growth in liver at 80 mg/kg, po administered for 7 days and measured after 28 days by giemsa staining based analysis relative to control; assay type: functional; set-up: scale not given: the % may be the effect or the level left; details: time 28 day
Leishmania donovani [31] = experiment: Antileishmanial activity against Leishmania donovani infected in golden hamster assessed as inhibition of parasite growth in spleen at 80 mg/kg, po administered for 7 days and measured after 28 days by giemsa staining based analysis relative to control; assay type: functional; set-up: scale not given: the % may be the effect or the level left; details: time 28 day
[32] = Toxicity in golden hamster infected with Leishmania donovani assessed as reduction in serum AST level at 40 mg/kg ,po and measured after 28 days post infection (reference value: 82.72 IU/L); assay type: organism-based, Mesocricetus auratus; details: in vivo, 672 h, time 28 day
[33] = Toxicity in golden hamster infected with Leishmania donovani assessed as reduction in serum ALT level at 40 mg/kg ,po and measured after 28 days post infection (reference value: 81.58 IU/L); assay type: organism-based, Mesocricetus auratus; details: in vivo, 672 h, time 28 day
[34] = Renal toxicity in golden hamster assessed as effect on creatinine level at 40 mg/kg, po measured after 28 days post infection; assay type: organism-based, Mesocricetus auratus; details: in vivo, 672 h, time 28 day
[35] = Renal toxicity in golden hamster assessed as effect on urea level at 40 mg/kg, po measured after 28 days post infection; assay type: organism-based, Mesocricetus auratus; details: in vivo, 672 h, time 28 day

## CCCCCCCCCCCCCCCCOP(=O)([O-])OCC[N+](C)(C)C [MILTEFOSINE]
J774 [1]
  Activity: 85.44%
J774 [2]
  Activity: 76.74%
J774 [3]
  Activity: 53.21%
Leishmania donovani [4]
  IC50: 6.91 µM
Leishmania donovani [5]
  IC50: 11 µM
J774 [6]
  CC50: 68 µM
[7]
  selectivity ratio: 6.21
Leishmania donovani [8]
  Activity: 97.23%
Leishmania donovani [9]
  Activity: 98.51%
Leishmania donovani [10]
  Activity: 100%
[11]
  Activity: 25 IU/L
[12]
  Activity: 20 IU/L
[13]
  Activity: Non-Toxic
[14]
  Activity: Non-Toxic

## CCn1c(-c2ccc(OCC(=O)Nc3ccccc3)cc2)nc2ccccc2c1=O
J774 [1]
  Activity: 84.82%
J774 [2]
  Activity: 77.94%
J774 [3]
  Activity: 42.29%
Leishmania donovani [4]
  IC50: 5.76 µM
Leishmania donovani [5]
  IC50: 6.02 µM
J774 [6]
  CC50: 72.9 µM
[7]
  selectivity ratio: 12.1
Leishmania donovani [15]
  Activity: 84.61%
Leishmania donovani [16]
  Activity: 80.66%
[17]
  remaining at 2 h, 10 ug/ml: 88.8%
[18]
  remaining at 2 h, 10 ug/ml: 89.6%
[19]
  remaining at 2 h, 10 ug/ml: 91.6%
Leishmania donovani [20]
  Activity: 29.8%
Leishmania donovani [8]
  Activity: 54.4%
Leishmania donovani [21]
  Activity: 28.1%
Leishmania donovani [9]
  Activity: 53.3%
Leishmania donovani [22]
  Activity: 77.3%
Leishmania donovani [23]
  Activity: 74.1%
[24]
  Activity: Non-Toxic
[25]
  Activity: Non-Toxic
Splenocyte [26]
  fold change (FC): 2.03
Splenocyte [27]
  Activity: 23.68%
Leishmania donovani [28]
  Activity: 46.1%
Leishmania donovani [29]
  Activity: 53.9%
Leishmania donovani [30]
  Activity: 77.1%
Leishmania donovani [31]
  Activity: 75.7%
[32]
  Activity: 119.82 IU/L
[33]
  Activity: 100.8 IU/L
[34]
  Activity: Non-Toxic
[35]
  Activity: Non-Toxic
